Results taken from patent US6545148B2, “Process for preparing certain substituted caprolactams” (Novartis AG, priority 2001, dated 2003).

Assay: H2O solubility of the chromatographed white solid
Type: physicochemical
Conditions: white solid after chromatography (2% methanol-CH2Cl2), before preparative hplc purification
Description: To a stirred solution of trifluoroacetic acid (10 ml), tetrahydrofuran (10 ml) and water (5 ml) at 0° C. is added, in one portion, 3.8 g (7.1 mmol) of the compound prepared in a) above. The reaction is stirred at 0° C. for 30 minutes, concentrated via rotary evaporation (bath temperature <20° C), mixed with saturated NH4HCO3 (5 mL) and stirred for 15 minutes. […] This material is further purified using preparative hplc (reverse phase eluted with 90% CH3CN-water) to give 2.9 g (82.4%) of the title compound as a white solid, m.p. 79-80° C.

Compound: CO[C@@H](C(=O)N[C@H]1CC[C@@H](OC(=O)C2CCCCC2)CNC1=O)[C@H](O)[C@@H](O)[C@H](O)/C=C/C(C)(C)C [Example 3, (2R, 3R, 4S, 5R, 6E)-3,4,5-trihydroxy-2-methoxy-8,8-dimethyl-N-[(3S,6R) -hexahydro-2-oxo-6-(cyclohexylcorbonyl)oxy-2H-azepin-3-3-yl]non-6-enamide]
- H2O solubility: 3700 µg/mL
